In US10598672B2, “Methods and compositions for diagnosing and treating loss and/or distortion of taste or smell” (Cyrano Therapeutics, Inc., priority 2014, dated 2020):
Marks after values point to notes of the source that are not given here.

Test system: patients with hyposmia
Assay: Olfactometry: DT, RT, ME and H for pyridine, nitrobenzene, thiophene, amyl acetate
Type: in vivo, human
Settings: for AMYL ACETATE DT, detection threshold / AMYL ACETATE H, hedonic value / AMYL ACETATE ME, magnitude estimation / AMYL ACETATE RT, recognition threshold / NI[…], detection threshold / NI[…], hedonic value / NI[…], magnitude estimation / NI[…], recognition threshold / PYRIDINE DT, detection threshold / PYRIDINE H, hedonic value / PYRIDINE ME, magnitude estimation / PYRIDINE RT, recognition threshold / THIOPHENE DT, detection threshold / THIOPHENE H, hedonic value / THIOPHENE ME, magnitude estimation / THIOPHENE RT, recognition threshold: hyposmic, oral theophylline, Mean ± SEM
[1] = ALL PATIENTS (31) treated with oral theophylline
[2] = ALLERGIC RHINITIS (11) treated with oral theophylline
[3] = CONGENITAL (9) treated with oral theophylline
[4] = PIHH (10) treated with oral theophylline
[5] = POST GENERAL ANESTHESIA (1) treated with oral theophylline
[6] = after intranasal treatment vs before treatment or after oral treatment
[7] = after oral treatment vs before treatment, 10 patients
[8] = hyposmic patients TREATED (31) with oral theophylline

Cn1c(=O)c2[nH]cnc2n(C)c1=O [theophylline]
SMELL IMPROVEMENT Patient (%) [1]: 61% | SMELL IMPROVEMENT Patient Number [1]: 19 | SMELL IMPROVEMENT Patient (%) [2]: 45% | SMELL IMPROVEMENT Patient Number [2]: 5 | SMELL IMPROVEMENT Patient (%) [3]: 56% | SMELL IMPROVEMENT Patient Number [3]: 5 | SMELL IMPROVEMENT Patient (%) [4]: 80% | SMELL IMPROVEMENT Patient Number [4]: 8 | SMELL IMPROVEMENT Patient (%) [5]: 100% | SMELL IMPROVEMENT Patient Number [5]: 1 | AMYL ACETATE DT, detection threshold (TREATED MEN (19)): 4.7 ± 0.9^b BU | AMYL ACETATE H, hedonic value (TREATED MEN (19)): 3 ± 3% | AMYL ACETATE ME, magnitude estimation (TREATED MEN (19)): 17 ± 5% | AMYL ACETATE RT, recognition threshold (TREATED MEN (19)): 5.3 ± 0.9^a BU | NI[…], detection threshold (TREATED MEN (19)): 4.8 ± 1.1^b BU | NI[…], hedonic value (TREATED MEN (19)): 6 ± 5% | NI[…], magnitude estimation (TREATED MEN (19)): 19 ± 5% | NI[…], recognition threshold (TREATED MEN (19)): 5.2 ± 1.2^b BU | PYRIDINE DT, detection threshold (TREATED MEN (19)): 4.8 ± 0.9^a BU | PYRIDINE H, hedonic value (TREATED MEN (19)): −30 ± 7% | PYRIDINE ME, magnitude estimation (TREATED MEN (19)): 36 ± 7% | PYRIDINE RT, recognition threshold (TREATED MEN (19)): 5.6 ± 1.0^c BU | THIOPHENE DT, detection threshold (TREATED MEN (19)): 5.6 ± 0.9^b BU | THIOPHENE H, hedonic value (TREATED MEN (19)): −7 ± 3% | THIOPHENE ME, magnitude estimation (TREATED MEN (19)): 15 ± 5% | THIOPHENE RT, recognition threshold (TREATED MEN (19)): 7.6 ± 1.0 BU | AMYL ACETATE DT, detection threshold (TREATED WOMEN (12)): 7.4 ± 1.1 BU | AMYL ACETATE H, hedonic value (TREATED WOMEN (12)): 2 ± 6% | AMYL ACETATE ME, magnitude estimation (TREATED WOMEN (12)): 22 ± 7% | AMYL ACETATE RT, recognition threshold (TREATED WOMEN (12)): 8.7 ± 1.0 BU | NI[…], detection threshold (TREATED WOMEN (12)): 6.8 ± 1.4 BU | NI[…], hedonic value (TREATED WOMEN (12)): 8 ± 7% | NI[…], magnitude estimation (TREATED WOMEN (12)): 25 ± 8% | NI[…], recognition threshold (TREATED WOMEN (12)): 7.3 ± 1.1 BU | PYRIDINE DT, detection threshold (TREATED WOMEN (12)): 7.1 ± 0.9 BU | PYRIDINE H, hedonic value (TREATED WOMEN (12)): −38 ± 8% | PYRIDINE ME, magnitude estimation (TREATED WOMEN (12)): 42 ± 9% | PYRIDINE RT, recognition threshold (TREATED WOMEN (12)): 8.0 ± 1.0 BU | THIOPHENE DT, detection threshold (TREATED WOMEN (12)): 7.1 ± 1.2 BU | THIOPHENE H, hedonic value (TREATED WOMEN (12)): −19 ± 6% | THIOPHENE ME, magnitude estimation (TREATED WOMEN (12)): 30 ± 7% | THIOPHENE RT, recognition threshold (TREATED WOMEN (12)): 8.1 ± 1.3 BU | DTs and RTs for each odor [6]: lower (more sensitive) | Hedonic responses to nitrobenzene [6]: more positive (more pleasant) | Hedonic responses to thiophene [6]: more negative (more unpleasant) | Magnitude estimations for each odor [6]: higher (more intense) | DTs and RTs for all odorants [7]: decreased (more sensitive) | HRs for all odorants [7]: increased | MEs for all odorants [7]: increased (more sensitive) | AMYL ACETATE DT [8]: 1.2 ± 0.6^d,a2 BU | AMYL ACETATE H [8]: 3 ± 4% | AMYL ACETATE ME [8]: 17 ± 5^a2% | AMYL ACETATE RT [8]: 5.5 ± 0.8^d BU | PYRIDINE DT [8]: 5.7 ± 0.7^c,b2 BU | PYRIDINE H [8]: −32 ± 6%
